pIC50, pKd: −log10 of the molar value. Read-outs that look alike come from different tables or passages of the source.
Assays:
[1] = test system: Glial Glutamate Transporter (GLAST and GLT1); test: Binding of [3H]-4MG to rat forebrain membrane homogenates in Na+-containing HEPES buffer; settings: FIG. 5
Description: (§1) Forebrain tissue from female Sprague Dawley rats was homogenized in HEPES buffer containing Na^+, and membranes were washed twice in the same buffer. Binding experiments were also performed in this buffer. Initial studies determined appropriate parameters for time (15 minutes incubation at 4° C.) and drug concentration (20 nM [^3H]-4MG) to be used in subsequent experiments. Following incubation of [^3H]-4MG with or without other compounds, binding was terminated by rapid filtration through Whatman GF/B filter discs and washing 3 times with buffer using a Brandel cell harvester. Binding was determined by scintillation spectrometry. A full range of association, dissociation, saturation and inhibition studies was performed over varying incubation times (up to 60 min). Data were analysed using computer-assisted curve fitting. Values are expressed as mean of at least triplicate determinations and multiple experiments.
(§2) A full range of association, dissociation, saturation and inhibition studies was performed over varying incubation times (up to 60 min). Data were analysed using computer-assisted curve fitting. Values cited are expressed as mean of at least triplicate determinations and multiple experiments.

[2] = test system: T1, Glial Glutamate Transporter (GLAST and GLT1); test: as above; settings: for Displacement of 4MG binding: at or above 100 μM, FIG. 5
T1 construct: Bmax; other: 20 nM [3H]-4MG, 4° C; KD
Description: as §1, §2

[3] = Bioavailability and half-life of prodrug; format: in vivo; settings: compared with 1
Description: (§3) The ester, carbonate, and amine bond in any prodrug forms of compounds identified by the disclosed method can be readily cleaved in vivo. Therefore, prodrug compositions can be hydrolyzed to the corresponding acid forms in plasma.

[4] = Hydrolysis of prodrug to the acid form; format: in vitro ADME
Description: as §3

Analgesic effect test = format: in vivo; settings: compared with 1
Description: as §3

[5] = 20 nM [3H]-4MG, 4° C., read-out: Displacement of 4MG binding to rat brain membrane homogenates, IC50

NCCCC(=O)O [GABA, γ-aminobutyric acid]
Effect on 4MG and/or D-aspartate binding to GluTs [1]: failed to affect

Cc1onc(O)c1CC(N)C(=O)O (stereo not drawn) [AMPA, α-amino-3-hydroxy-5-methyl-4-isoxazolepropionate]
Displacement of 4MG binding [2]: failed to significantly displace

CC(C)(C)c1o[nH]c(=O)c1CC(N)C(=O)O (stereo not drawn) [ATPA]
Effect on 4MG and/or D-aspartate binding to GluTs [1]: failed to affect

C[C@H](C[C@H](N)C(=O)O)C(=O)O [4MG, (2S,4R)-4-methylglutamate]
pKd [2]: 5.27
pIC50 ([2]; read-out: Displacement of 4MG binding to rat brain membrane homogenates, IC50): 5.17

N[C@H](CC(=O)O)C(=O)O [D-aspartate]
pIC50 [2, 5]: 4.96

NCC(=O)O [GLY, glycine]
Effect on 4MG and/or D-aspartate binding to GluTs [1]: failed to affect

N[C@@H](CC(=O)O)C(=O)O [L-aspartate]
pIC50 [2, 5]: 5.12

O=C(O)[C@H]1CN[C@H](C(=O)O)C1 [PDC, L-trans-pyrrolidine-2,4-dicarboxylate]
pIC50 [2, 5]: 5.54

C[C@H](C[C@H](N)C(=O)O)C(=O)O [SYM 2081]
pIC50 ([2]; Table 2, read-out: Inhibition of Binding of [3H]-4MG to Glial Glutamate Transporter, IC50): 4.54

N[C@@H](COS(=O)(=O)O)C(=O)O [SOS, L-serine-O-sulphate]
pIC50 [2, 5]: 4.40

N[C@@H](CCC(=O)O)C(=O)O [glutamate, L-glutamic acid]
pIC50 [2, 5]: 5.21

N[C@@H](Cn1cc(I)c(=O)[nH]c1=O)C(=O)O [IW, iodowillardine]
Effect on 4MG and/or D-aspartate binding to GluTs [1]: failed to affect

L-anti-endo-3,4-methanopyrrolidine dicarboxylate [MPDC]
pIC50 [2, 5]: 5.40

N[C@@H](Cn1cc(F)c(=O)[nH]c1=O)C(=O)O [FW, fluorowillardiine]
Displacement of 4MG binding [2]: failed to significantly displace

N[C@H](C(=O)O)[C@H]1C[C@H]1C(=O)O [CCG-III, (2S,3S,4R)-2-(carboxycyclopropyl)glycine]
pIC50 [2, 5]: 5.92

CN[C@H](CC(=O)O)C(=O)O [NMDA, N-methyl-D-aspartate]
Displacement of 4MG binding [2]: failed to significantly displace

COC(=O)[C@H](C)C[C@H](N)C(=O)OC [compound 2, (2S,4R)-4-methyl glutamic acid dimethyl ester]
Bioavailability [3]: enhanced bioavailability
Half-life [3]: longer half-life
Hydrolysis to (2S,4R)-4-methyl glutamic acid (1) [4]: readily hydrolyzed
Analgesic effect (Analgesic effect test): analgesic effect similar to 1

— US20020188022A1, “Methods for modulation, stimulation, and inhibition of glutamate reuptake” (Annovis. Inc., priority 2000, published 2002)
